{"source": "patent US20230174951A1", "about": "“PHENOL-RICH GRAPES” (THE STATE OF ISRAEL, MINISTRY OF AGRICULTURE & RURAL …, priority 2020, published 2023)", "key": {"[1]": {"tested_on": "AroG*+STS28 (Line 16) cells", "test": "Effect of Phe and p-CA concentrations on cell growth", "format": "cell-based, Vitis vinifera", "procedure": "The concentrations of Phe and p-CA chosen for the feeding experiments were those in which cell viability was not affected, but cell growth was slower. To compare the growth rate, the fresh Weight (FW) of the cells per ml growth media was measured at day 7 of growth. […] Even though the viability of the treated with 0.5-5 mM Phe and 0.1-0.3 mM p-CA was similar, their growth pattern differed with formation of larger clumps in the liquid media (FIG. 6C)."}, "[2]": {"test": "Water solubility"}}}
{"smiles": "N[C@@H](Cc1ccccc1)C(=O)O", "note": "[Phe, Phenylalanine]", "values": [{"measurement": "weight of treated cells", "setting": "[1]; 1, 2 and 5 mM, day 7", "value": "weighed significantly less"}]}
{"smiles": "O=C(O)/C=C/c1ccc(O)cc1", "note": "[p-Coumaric acid, p-coumaric acid]", "values": [{"measurement": "cell growth", "setting": "[1]; 0.3 mM, compared to cells in 0.2% ethanol", "value": "slower growth"}, {"measurement": "water solubility", "setting": "[2]", "value": "not water soluble"}]}
